ChEMBL document CHEMBL1136235, “Synthesis and biological activity of piperazine-based dual MMP-13 and TNF-alpha converting enzyme inhibitors” (Bioorg Med Chem Lett, 2003)

What was measured:
[1] = target: T1, Disintegrin and metalloproteinase domain-containing protein 17 (Homo sapiens, UniProt P78536); assay: Inhibition of human recombinant tumor necrosis factor-alpha converting enzyme.
Collagenase 3 = Collagenase 3 (Homo sapiens, UniProt P45452); assay: In vitro inhibition of matrix metalloprotease-13.
Interstitial collagenase = target: T2, Interstitial collagenase (Homo sapiens, UniProt P03956); assay: In vitro inhibition of matrix metalloprotease-1.
T2 sequence (P03956 whole entry): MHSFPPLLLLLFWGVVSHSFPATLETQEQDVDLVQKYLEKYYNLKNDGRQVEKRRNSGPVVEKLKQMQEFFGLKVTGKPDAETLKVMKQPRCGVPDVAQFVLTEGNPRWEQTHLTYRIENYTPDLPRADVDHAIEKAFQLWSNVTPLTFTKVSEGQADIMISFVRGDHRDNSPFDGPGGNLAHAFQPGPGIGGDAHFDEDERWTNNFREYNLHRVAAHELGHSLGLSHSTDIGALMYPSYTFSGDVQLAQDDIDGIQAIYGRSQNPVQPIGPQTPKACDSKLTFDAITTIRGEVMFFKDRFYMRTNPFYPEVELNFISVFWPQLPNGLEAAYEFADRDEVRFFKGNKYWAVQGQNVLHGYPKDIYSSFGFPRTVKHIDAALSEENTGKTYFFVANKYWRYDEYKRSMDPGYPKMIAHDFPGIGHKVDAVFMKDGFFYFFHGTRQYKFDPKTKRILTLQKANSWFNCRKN

[2] = target: T1, Disintegrin and metalloproteinase domain-containing protein 17; assay: Inhibition of Tumor necrosis factor-alpha (TNF-alpha) release in human whole blood; format: functional, tissue-based
[3] = Pharmacokinetic property (Vdss) in rat; format: ADME, organism-based; settings: in vivo, read-out: Vdss
Rattus norvegicus [4] = species on record: Rattus norvegicus; assay: Concentration required for TNF-alpha production in an acute rat LPS-induced model; format: functional
[5] = (§1) Pharmacokinetic property (Clp) in rat; format: ADME, organism-based; settings: plasma, read-out: Clp
[6] = Half life in rat i.v.; format: ADME, organism-based; settings: in vivo, iv
Rattus norvegicus [7] = assay: Inhibition of TNF-alpha production in an acute rat LPS-induced model at the dose of 30 mg/kg; format: functional
[8] = Half in rat i.v.; format: ADME, organism-based; settings: in vivo, iv
Rattus norvegicus [9] = species on record: Rattus norvegicus; assay: as §1; format: ADME, organism-based; settings: in vivo

T1 sequence (P78536 whole entry, the tested form may be a part): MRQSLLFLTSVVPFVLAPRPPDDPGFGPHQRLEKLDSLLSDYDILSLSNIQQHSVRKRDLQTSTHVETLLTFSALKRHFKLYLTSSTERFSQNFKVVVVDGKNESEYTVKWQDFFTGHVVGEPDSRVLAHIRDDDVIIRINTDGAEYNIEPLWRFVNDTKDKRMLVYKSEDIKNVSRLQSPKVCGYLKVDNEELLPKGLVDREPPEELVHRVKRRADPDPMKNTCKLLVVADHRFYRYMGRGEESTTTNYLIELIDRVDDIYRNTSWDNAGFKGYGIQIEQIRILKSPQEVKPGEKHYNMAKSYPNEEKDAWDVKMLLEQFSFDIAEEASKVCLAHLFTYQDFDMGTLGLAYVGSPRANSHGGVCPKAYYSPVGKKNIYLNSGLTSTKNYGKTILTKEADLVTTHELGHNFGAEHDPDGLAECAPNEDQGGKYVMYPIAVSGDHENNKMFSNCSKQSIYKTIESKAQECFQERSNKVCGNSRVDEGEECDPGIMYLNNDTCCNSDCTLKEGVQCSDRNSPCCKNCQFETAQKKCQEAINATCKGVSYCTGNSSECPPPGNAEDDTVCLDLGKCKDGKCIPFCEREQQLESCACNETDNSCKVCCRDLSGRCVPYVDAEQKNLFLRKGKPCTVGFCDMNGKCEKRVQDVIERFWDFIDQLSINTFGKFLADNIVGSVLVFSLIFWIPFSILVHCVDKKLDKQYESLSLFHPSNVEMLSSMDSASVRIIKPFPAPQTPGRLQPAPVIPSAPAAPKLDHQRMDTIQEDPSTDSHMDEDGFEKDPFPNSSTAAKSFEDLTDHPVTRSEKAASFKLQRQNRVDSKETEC

**Q.** Which results are given for `CCOC(=O)N1CCN(S(=O)(=O)c2ccc(OCc3ccccc3C)cc2)[C@@H](C(=O)NO)[C@@H]1C`?
**A.** IC50 [1]: 28 nM; IC50 (Collagenase 3): 6 nM; IC50 (Interstitial collagenase): 1500 nM; IC50 [2]: 3000 nM

**Q.** For `CC(=O)N1CCN(S(=O)(=O)c2ccc(OCc3ccnc4ccccc34)cc2)[C@@H](C(=O)NO)[C@@H]1C`, which IC50 (Collagenase 3) is on record?
**A.** 17 nM

**Q.** What about the IC50 (Interstitial collagenase) of the same compound?
**A.** 830 nM

**Q.** And the IC50 [2]?
**A.** 300 nM

**Q.** What does the source list for `CCc1ccccc1COc1ccc(S(=O)(=O)N2CCN(C(C)=O)[C@@H](C)[C@@H]2C(=O)NO)cc1`?
**A.** IC50 [1]: 7 nM; IC50 (Collagenase 3): 40 nM; IC50 (Interstitial collagenase): 6700 nM; IC50 [2]: 600 nM

**Q.** Which IC50 (Collagenase 3) does the source give for `C[C@@H]1NCCN(S(=O)(=O)c2ccc(OCc3ccccc3)cc2)[C@H]1C(=O)NO` here?
**A.** 11 nM

**Q.** And the IC50 (Interstitial collagenase)?
**A.** 12000 nM

**Q.** What about the IC50 [2] of the same compound?
**A.** 18000 nM

**Q.** What does the source list for `CC(=O)N1CCN(S(=O)(=O)c2ccc(OCc3cccnc3C)cc2)[C@@H](C(=O)NO)[C@@H]1C`?
**A.** IC50 [1]: 5 nM; IC50 (Collagenase 3): 8 nM; IC50 (Interstitial collagenase): 3400 nM; IC50 [2]: 800 nM

**Q.** For `CC(=O)N1CCN(S(=O)(=O)c2ccc(OCc3ccccc3C)cc2)[C@@H](C(=O)NO)[C@@H]1C`, which IC50 [1] is on record?
**A.** 6 nM

**Q.** And the Vd [3]?
**A.** 0.6 L/kg

**Q.** What about the ED50 (Rattus norvegicus [4]) of the same compound?
**A.** 17 mg/kg

**Q.** And the IC50 [2]?
**A.** 1000 nM

**Q.** And the clearance [5]?
**A.** 54 mL/min/kg

**Q.** And the half-life [6]?
**A.** 16.2 min

**Q.** With `CC(=O)N1CCN(S(=O)(=O)c2ccc(OCc3ccc(F)cc3)cc2)[C@@H](C(=O)NO)[C@@H]1C` as the compound, how does the IC50 [1] read?
**A.** 6 nM

**Q.** What about the IC50 (Collagenase 3) of the same compound?
**A.** 3 nM

**Q.** What about the IC50 (Interstitial collagenase) of the same compound?
**A.** 1700 nM

**Q.** What about the IC50 [2] of the same compound?
**A.** 2000 nM

**Q.** With `Cc1ccccc1COc1ccc(S(=O)(=O)N2CCN(S(C)(=O)=O)[C@@H](C)[C@@H]2C(=O)NO)cc1` as the compound, how does the inhibition in vivo at 30 mg/kg (Rattus norvegicus [7]) read?
**A.** 55%

**Q.** What about the IC50 [1] of the same compound?
**A.** 6 nM

**Q.** And the half-life [8]?
**A.** 12.6 min

**Q.** And the Vd [3]?
**A.** 2.1 L/kg

**Q.** What about the IC50 (Collagenase 3) of the same compound?
**A.** 4 nM

**Q.** What about the IC50 (Interstitial collagenase) of the same compound?
**A.** 1300 nM

**Q.** And the IC50 [2]?
**A.** 1000 nM

**Q.** What about the Clp (Rattus norvegicus [9]) of the same compound?
**A.** 98 mL/min/kg

**Q.** What does the source list for `Cc1ccccc1COc1ccc(S(=O)(=O)N2CCN(C(=O)Nc3ccccc3)[C@@H](C)[C@@H]2C(=O)NO)cc1`?
**A.** IC50 [1]: 26 nM; IC50 (Interstitial collagenase): 2200 nM; IC50 [2]: 12000 nM

**Q.** With `Cc1ccccc1COc1ccc(S(=O)(=O)N2CCN(C(=O)NC(C)C)[C@@H](C)[C@@H]2C(=O)NO)cc1` as the compound, how does the IC50 [1] read?
**A.** 34 nM

**Q.** What about the IC50 (Collagenase 3) of the same compound?
**A.** 4 nM

**Q.** What about the IC50 (Interstitial collagenase) of the same compound?
**A.** 1400 nM

**Q.** And the IC50 [2]?
**A.** 3000 nM

**Q.** With `CC[C@H](C)[C@H](NC(=O)C(CC(C)C)[C@H](C(C)C)N(O)C=O)C(=O)Nc1ccccn1` (stereo partly specified) as the compound, how does the IC50 [1] read?
**A.** 40 nM

**Q.** What about the IC50 (Collagenase 3) of the same compound?
**A.** 7 nM

**Q.** And the IC50 (Interstitial collagenase)?
**A.** 19 nM

**Q.** Which results are given for `Cc1ccc(S(=O)(=O)N2CCN(S(=O)(=O)c3ccc(OCc4ccccc4C)cc3)[C@@H](C(=O)NO)[C@@H]2C)cc1`?
**A.** IC50 [1]: 32 nM; IC50 [2]: 26000 nM

**Q.** What does the source list for `CC(=O)N1CCN(S(=O)(=O)c2ccc(OCc3cncc4ccccc34)cc2)[C@@H](C(=O)NO)[C@@H]1C`?
**A.** IC50 (Collagenase 3): 98 nM; IC50 (Interstitial collagenase): 6400 nM; IC50 [2]: 400 nM

**Q.** With `CC(=O)N1CCN(S(=O)(=O)c2ccc(OCc3cc(F)cc(F)c3)cc2)[C@@H](C(=O)NO)[C@@H]1C` as the compound, how does the IC50 [1] read?
**A.** 6 nM

**Q.** What about the IC50 (Collagenase 3) of the same compound?
**A.** 20 nM

**Q.** And the IC50 (Interstitial collagenase)?
**A.** 3800 nM

**Q.** And the IC50 [2]?
**A.** 1000 nM

**Q.** Which inhibition in vivo at 30 mg/kg (Rattus norvegicus [7]) does the source give for `Cc1ccccc1COc1ccc(S(=O)(=O)N2CCN[C@@H](C)[C@@H]2C(=O)NO)cc1` here?
**A.** 39%

**Q.** What about the Vd [3] of the same compound?
**A.** 1.1 L/kg

**Q.** What about the IC50 (Collagenase 3) of the same compound?
**A.** 19 nM

**Q.** What about the IC50 (Interstitial collagenase) of the same compound?
**A.** 12000 nM

**Q.** And the IC50 [2]?
**A.** 2000 nM

**Q.** And the clearance [5]?
**A.** 83 mL/min/kg

**Q.** What about the half-life [6] of the same compound?
**A.** 14.4 min

**Q.** Which results are given for `CC(=O)N1CCN(S(=O)(=O)c2ccc(OCc3cc(F)ccc3C)cc2)[C@@H](C(=O)NO)[C@@H]1C`?
**A.** IC50 [1]: 7 nM; IC50 (Collagenase 3): 7 nM; IC50 (Interstitial collagenase): 1900 nM; IC50 [2]: 1000 nM

**Q.** For `C#CCOc1ccc(S(=O)(=O)N(C)c2c(C)cc(Br)cc2C(=O)NO)cc1`, which IC50 (Collagenase 3) is on record?
**A.** 113 nM

**Q.** And the IC50 (Interstitial collagenase)?
**A.** 52 nM

**Q.** Which IC50 [1] does the source give for `CC(=O)N1CCN(S(=O)(=O)c2ccc(OCc3ccccc3C(F)(F)F)cc2)[C@@H](C(=O)NO)[C@@H]1C` here?
**A.** 11 nM

**Q.** And the IC50 (Collagenase 3)?
**A.** 127 nM

**Q.** What about the IC50 (Interstitial collagenase) of the same compound?
**A.** 10000 nM

**Q.** And the IC50 [2]?
**A.** 2000 nM

**Q.** Which IC50 [1] does the source give for `Cc1ccccc1COc1ccc(S(=O)(=O)N2CCN(C)[C@@H](C)[C@@H]2C(=O)NO)cc1` here?
**A.** 31 nM

**Q.** And the IC50 [2]?
**A.** 33000 nM

**Q.** For `Cc1ccccc1COc1ccc(S(=O)(=O)N2CCN(Cc3ccccc3)[C@@H](C)[C@@H]2C(=O)NO)cc1`, which IC50 [1] is on record?
**A.** 68 nM

**Q.** What about the IC50 (Interstitial collagenase) of the same compound?
**A.** 17000 nM

**Q.** What about the IC50 [2] of the same compound?
**A.** 33000 nM

**Q.** What does the source list for `COC(=O)N1CCN(S(=O)(=O)c2ccc(OCc3ccccc3C)cc2)[C@@H](C(=O)NO)[C@@H]1C`?
**A.** IC50 [1]: 14 nM; IC50 (Collagenase 3): 4 nM; IC50 (Interstitial collagenase): 1500 nM; IC50 [2]: 2000 nM
